One assay has as its target HIV integrase (Human immunodeficiency virus type 1 group M subtype B, UniProt P04585). As to the kind of experiment: integrase strand transfer assay (STA). In kind it is biochemical. Conditions: integrase strand transfer; read-out: IC50 in the STA assay.
A further assay deals with HXB2 virus. As to the kind of experiment: microbe, parasite or virus in culture. Conditions: Human immunodeficiency virus 1, HXB2, HeLaP4-2, read-out: antiviral IC50 (SCIA-B). In kind it is cell-based, HIV. The gist of the method:
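HXB2 virus used to infect HeLa P4-2 cells in a single-cycle format; inhibition of acute infection is measured.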

Usually IC50 stands for the concentration that gives 50% inhibition.

In the case of `CS(=O)(=O)Nc1ccccc1-c1cc(=O)n(O)c2ncccc12` [Example 201, N-[2-(1-hydroxy-2-oxo-1,2-dihydro-1,8-naphthyridin-4-yl)phenyl]methanesulfo-namide], the IC50 on HIV integrase is less than 50 µM; in the assay on HXB2 virus it was less than 100 µM.
On to `N#Cc1cccc(-c2cccc(-c3cc(=O)n(O)c4ncccc34)c2)c1` [Example 202, 3′-(1-hydroxy-2-oxo-1,2-dihydro-1,8-naphthyridin-4-yl)biphenyl-3-carbonitrile], for which the IC50 is less than 50 µM at HIV integrase and less than 100 µM in the assay on HXB2 virus.
In the case of `O=c1cc(-c2ccncc2)c2cccnc2n1O` [Example 203, 1-hydroxy-4-pyridin-4-yl-1,8-naphthyridin-2(1H)-one], the values for the IC50 at HIV integrase and with HXB2 virus were less than 50 µM and less than 100 µM, respectively.
Turning to `NCc1cccc(-c2cccc(-c3cc(=O)n(O)c4ncccc34)c2)c1` [Example 204, 4-[3′-(aminomethyl)biphenyl-3-yl]-1-hydroxy-1,8-naphthyridin-2(1H)-one], the IC50 on HIV integrase is less than 50 µM; in the assay on HXB2 virus, less than 100 µM.
Regarding `O=c1cc(-c2cccc(-c3cccc(CNCc4ccccc4)c3)c2)c2cccnc2n1O` [Example 205, 4-{3′-[(benzylamino)methyl]biphenyl-3-yl}-1-hydroxy-1,8-naphthyridin-2(H)-one], the IC50 on HIV integrase was less than 50 µM; in the assay with HXB2 virus it was less than 100 µM.
In the case of `O=c1cc(-c2cccc(CN3CCN(Cc4ccccc4)CC3)c2)c2cccnc2n1O` [Example 206, 4-{3-[(4-benzyl-1-piperazinyl)methyl]phenyl}-1-hydroxy-1,8-naphthyridin-2(1H-one)], the figures for the IC50 at HIV integrase and with HXB2 virus were less than 50 µM and less than 100 µM, respectively.
Regarding `O=c1cc(-c2cccc(CN3CCN(C(c4ccccc4)c4ccc(Cl)cc4)CC3)c2)c2cccnc2n1O` (stereo not shown) [Example 207], the IC50 was less than 50 µM on HIV integrase and less than 100 µM with HXB2 virus.
For `O=C(CN1CCN(Cc2cccc(-c3cc(=O)n(O)c4ncccc34)c2)CC1)N1CCCC1` [Example 208, 1-hydroxy-4-[3-({4-[2-oxo-2-(1-pyrrolidinyl)ethyl]-1-piperazinyl}methyl)phenyl]-1,8-naphthyridin-2(1H-one)], the IC50 was less than 50 µM at HIV integrase and less than 100 µM with HXB2 virus.
For `CN(C)C(=O)CNCc1cccc(-c2cc(=O)n(O)c3ncccc23)c1` [Example 209, 2-{[3-(1-hydroxy-2-oxo-1,2-dihydro-1,8-naphthyridin-4-yl)benzyl]amino}-N,N-dimethylacetamide] the same measures were less than 50 µM and less than 100 µM.
On to `CC(c1ccccc1)N1CCN(Cc2cccc(-c3cc(=O)n(O)c4ncccc34)c2)CC1` (stereo not shown) [Example 210, 1-hydroxy-4-(3-{[4-(1-phenylethyl)-1-piperazinyl]methyl}phenyl)-1,8-naphthyridin-2(1H-one)], for which the IC50 on HIV integrase is less than 50 µM; in the assay on HXB2 virus it was less than 100 µM.
For `O=C(CN1CCN(Cc2cccc(-c3cc(=O)n(O)c4ncccc34)c2)CC1)N1CCOCC1` [Example 211, 1-hydroxy-4-[3-({4-[2-(4-morpholinyl)-2-oxoethyl]-1-piperazinyl}methyl)phenyl]-1,8-naphthyridin-2(1H-one)] the same measures were less than 50 µM and less than 100 µM.
As for `CN(C)CCCN1CCN(Cc2cccc(-c3cc(=O)n(O)c4ncccc34)c2)CC1` [Example 212, 4-[3-({4-[3-(dimethylamino)propyl]-1-piperazinyl}methyl)phenyl]-1-hydroxy-1,8-naphthyridin-2(1H-one)], the IC50 on HIV integrase was less than 50 µM; with HXB2 virus, less than 100 µM.
For `CC(=O)N1CCN(Cc2cccc(-c3cc(=O)n(O)c4ncccc34)c2)CC1` [Example 213, 4-{3-[(4-acetyl-1-piperazinyl)methyl]phenyl}-1-hydroxy-1,8-naphthyridin-2(1H-one)], the IC50 on HIV integrase was less than 50 µM; in the assay on HXB2 virus, less than 100 µM.
For the compound `CN(C(=O)c1c(O)c2cccnc2n(O)c1=O)C1CCNC1` (stereo not shown) [Example 215, 1,4-Dihydroxy-N-methyl-2-oxo-N-pyrrolidin-3-yl-1,2-dihydro-1,8-naphthyridine-3-carboxamide], the IC50 at HIV integrase is less than 50 µM; in the assay on HXB2 virus, less than 100 µM.
For `CN1C(=O)c2c(c3cccnc3n(O)c2=O)NC1c1ccccc1` (stereo not shown) [Example 216, 6-Hydroxy-3-methyl-2-phenyl-2,3-dihydropyrimido[5,4-c]-1,8-naphthyridine-4,5(1H, 6H)-dione], the IC50 at HIV integrase was less than 50 µM; in the assay on HXB2 virus it was less than 100 µM.
For `CN1C(=O)c2c(c3cccnc3n(O)c2=O)NC1c1ccccc1-c1ccccc1` (stereo not shown) [Example 217, 2-Biphenyl-2-yl-6-hydroxy-3-methyl-2,3-dihydropyrimido[5,4-c]-1,8-naphthyridine-4,5(1H, 6H)dione] the same measures were less than 50 µM and less than 100 µM.
For `CN1C(=O)c2c(c3cccnc3n(O)c2=O)NC1c1cccc(Oc2ccccc2)c1` (stereo not shown) [Example 218, 6-Hydroxy-3-methyl-2-(3-phenoxyphenyl)-2,3-dihydropyrimido[5,4-c]-1,8-naphthyridine-4,5(1H, 6H)dione], the IC50 is less than 50 µM at HIV integrase and less than 100 µM with HXB2 virus.
For `CN1C(=O)c2c(c3cccnc3n(O)c2=O)NC1c1cccc(CN2CCOCC2)c1` (stereo not shown) [Example 219, 6-Hydroxy-3-methyl-2-[3-(morpholin-4-ylmethyl)phenyl]-2,3-dihydropyrimido[5,4-c]-1,8-naphthyridine-4,5(1H, 6H)dione] the same measures were less than 50 µM and less than 100 µM.
Consider `CN1C(=O)c2c(c3cccnc3n(O)c2=O)NC1c1cccc(CN)c1` (stereo not shown) [Example 220, 2-[3-(Aminomethyl)phenyl]-6-hydroxy-3-methyl-2,3-dihydropyrimido[5,4-c]-1,8-naphthyridine-4,5(1H, 6H)dione], for which the IC50 at HIV integrase is less than 50 µM; in the assay with HXB2 virus it was less than 100 µM.
As for `CNC(=O)c1c(N)c2cccnc2n(O)c1=O` [Example 221, 4-Amino-1-hydroxy-N-methyl-2-oxo-1,2-dihydro-1,8-naphthyridine-3-carboxamide], the IC50 on HIV integrase is less than 50 µM; in the assay on HXB2 virus, less than 100 µM.
For `CCOC(=O)Cc1c(O)c2cccnc2n(O)c1=O` [Example 223, Ethyl (1,4-dihydroxy-2-oxo-1,2-dihydro-1,8-naphthyridin-3-yl)acetate], the results for the IC50 on HIV integrase and in the assay with HXB2 virus were less than 50 µM and less than 100 µM, respectively.
For `NCc1cccc(CNC(=O)Cc2c(O)c3cccnc3n(O)c2=O)c1` [Example 224] the same measures were less than 50 µM and less than 100 µM.
For `O=c1cc(O)c2c(-c3cccc(O)c3)ccnc2n1O` [Example 226, 1,4-dihydroxy-5-(3-hydroxyphenyl)-1,8-naphthyridin-2(1H)-one] the same measures were less than 50 µM and less than 100 µM.
`NCc1cccc(-c2cccc(-c3ccnc4c3c(O)cc(=O)n4O)c2)c1` [Example 227, 5-[3′-(aminomethyl)biphenyl-3-yl]-1,4-dihydroxy-1,8-naphthyridin-2-(1H)-one]: the IC50 on HIV integrase is less than 50 µM; in the assay on HXB2 virus, less than 100 µM.
For `NCc1ccc(-c2cccc(-c3ccnc4c3c(O)cc(=O)n4O)c2)cc1` [Example 228, 5-[4′-(aminomethyl)biphenyl-3-yl]-1,4-dihydroxy-1,8-naphthyridin-2(1H)-one] the same measures were less than 50 µM and less than 100 µM.
For `Cc1cc(C)n(-c2cccc(-c3ccnc4c3c(O)cc(=O)n4O)c2)n1` [Example 229, 5-[3-(3,5-dimethyl-1H-pyrazol-1-yl)phenyl]-1,4-dihydroxy-1,8-naphthyridin-2(1H)-one] the same measures were less than 50 µM and less than 100 µM.
Take `NCc1ccc(-c2cccc(Cc3cc(=O)n(O)c4ncccc34)c2)cc1` [Example 232, 4-{[4′-(aminomethyl)biphenyl-3-yl]methyl}-1-hydroxy-1,8-naphthyridin-2(1H)-one]: the IC50 at HIV integrase is less than 50 µM; with HXB2 virus, less than 100 µM.
For `Nc1cccc(-c2cccc(Cc3cc(=O)n(O)c4ncccc34)c2)c1` [Example 233, 4-[(3′-aminobiphenyl-3-yl)methyl]-1-hydroxy-1,8-naphthyridin-2(1H)-one] the same measures were less than 50 µM and less than 100 µM.
For `Nc1ccc(-c2cccc(Cc3cc(=O)n(O)c4ncccc34)c2)cc1` [Example 234, 4-[(4′-aminobiphenyl-3-yl)methyl]-1-hydroxy-1,8-naphthyridin-2(1H)-one] the same measures were less than 50 µM and less than 100 µM.
For `O=c1cc(-c2cccc(O)c2)c2cccnc2n1O` [Example 237, 1-hydroxy-4-(3-hydroxyphenyl)-1,8-naphthyridin-2(1H)-one] the same measures were less than 50 µM and less than 100 µM.
Consider `NC1(c2cccc(-c3ccc(-c4cc(=O)n(O)c5ncccc45)cc3)c2)CC1` [Example 238, 4-[3′-(1-aminocyclopropyl)biphenyl-4-yl]-1-hydroxy-1,8-naphthyridin-2(1H)-one], for which the IC50 on HIV integrase was less than 50 µM; in the assay with HXB2 virus it was less than 100 µM.
For `Nc1ccc(Cc2ccc(-c3cc(=O)n(O)c4ncccc34)cc2)cc1` [Example 239, 4-[4-(4-aminobenzyl)phenyl]-1-hydroxy-1,8-naphthyridin-2(1H)-one] the same measures were less than 50 µM and less than 100 µM.
As for `CCOC(=O)c1c(CCc2ccccc2)c2cccnc2n(O)c1=O` [Example 240, ethyl 1-hydroxy-2-oxo-4-(2-phenylethyl)-1,2-dihydro-1,8-naphthyridine-3-carboxylate], the IC50 at HIV integrase was less than 50 µM; in the assay with HXB2 virus, less than 100 µM.
For `CCOC(=O)c1c(-c2ccc(-c3ccc(CN)cc3)cc2)c2cccnc2n(O)c1=O` [Example 243, Ethyl 4-[4′-(aminomethyl)biphenyl-4-yl]-1-hydroxy-2-oxo-1,2-dihydro-1,8-naphthyridine-3-carboxylate] the same measures were less than 50 µM and less than 100 µM.
For `O=c1cc(-c2cn[nH]c2)c2cccnc2n1O` [Example 244, 1-Hydroxy-4-(pyrazol-4-yl)-1,8-naphthyridin-2-(1H)-one] the same measures were less than 50 µM and less than 100 µM.

The values are drawn from patent US20100056516A1 (priority 2006, published 2010).
